Experimental data: paper PMC3064523 (Clinical cancer research : an official journal of the …, 2010)
Where “and” joins values, the source holds several entries; their conditions need not be identical. Equal entries are not always repeated. Entries after “also recorded” stand apart in the source; their conditions may differ. Where two headings read alike, the source gives them in different places.

Legend:
[1] = test system: children with refractory solid or CNS tumors; assay: Phase 1 trial: dose-limiting and non-dose-limiting toxicities of oral VPA; format: in vivo, human; details: for Description of DLTs: cycle 1
[2] = format: in vivo, human; details: for Total VPA / Free VPA: at PBMC sampling; for CL/F: CL/F (apparent total body clearance) Median +/− SD; for half-life: t1/2 Median +/− SD
[3] = test system: Histone H3 acetylation in PBMCs; assay: PBMC histone H3 acetylation, sandwich ELISA; format: in vivo, human; details: for Post-VPA/Pre-VPA AcH3: steady state trough
[4] = test system: Histone H4 acetylation in PBMCs; assay: PBMC histone H4 acetylation, sandwich ELISA; format: in vivo, human; details: steady state trough
[5] = test system: children with newly diagnosed high-grade or brainstem gliomas; assay: Ongoing phase II trial of VPA and radiation; format: in vivo, human; details: seven children; VPA trough concentrations of 85–115 mcg/ml
human cancers = details: pre-clinical studies; cited from earlier work
[6] = test system: PBMC histone acetylation (AcH3 and AcH4); details: 4 hours after a dose of VPA; cited from earlier work
histone acetylation = details: at the time of maximal drug concentration; cited from earlier work
[7] = Cycle 1 (16 total cycle), 16 evaluable patients
[8] = Cycle 2 to 7 (15 total cycles), 16 evaluable patients
[9] = human, plasma, po, Steady State, Free VPA (n = 4), oral
[10] = human, plasma, po, Steady State, Total VPA (n = 4), oral

CCCC(CCC)C(=O)O [VPA, Valproic acid]
Description of DLTs ([1]; Cohort 0 (trough VPA level 75–100 mcg/ml), TID dosing): None
Description of DLTs ([1]; Cohort 1 (trough VPA level 100–150 mcg/ml), BID dosing): grade 3 somnolence; also recorded: Somnolence (1)
Description of DLTs ([1]; Cohort 1 (trough VPA level 100–150 mcg/ml), TID dosing): grade-3 somnolence and grade-5 hemorrhage/hemothorax; also recorded: Somnolence (1) Pulmonary hemorrhage (1) Dyspnea (1) Hypoxia (1) Hypotension (1) Hypocalcemia (1)
Anemia, non-dose limiting, maximum Grade 1 [1, 7]: 3
Anemia, non-dose limiting, maximum Grade 2 [1, 7]: 2
Anemia, non-dose limiting, maximum Grade 4 [1, 7]: 1
Dizziness, non-dose limiting, maximum Grade 1 [1, 7]: 4
Fatigue, non-dose limiting, maximum Grade 1 [1, 7]: 3
Fatigue, non-dose limiting, maximum Grade 2 [1, 7]: 2
Headache, non-dose limiting, maximum Grade 1 [1, 7]: 1
Headache, non-dose limiting, maximum Grade 2 [1, 7]: 1
Hypoalbuminemia, non-dose limiting, maximum Grade 1 [1, 7]: 1
Hypoalbuminemia, non-dose limiting, maximum Grade 2 [1, 7]: 2
Leukopenia, non-dose limiting, maximum Grade 1 [1, 7]: 5
Leukopenia, non-dose limiting, maximum Grade 2 [1, 7]: 1
Lymphopenia, non-dose limiting, maximum Grade 1 [1, 7]: 4
Lymphopenia, non-dose limiting, maximum Grade 2 [1, 7]: 1
Lymphopenia, non-dose limiting, maximum Grade 4 [1, 7]: 1
Nausea, non-dose limiting, maximum Grade 1 [1, 7]: 1
Nausea, non-dose limiting, maximum Grade 3 [1, 7]: 1
Neutropenia, non-dose limiting, maximum Grade 1 [1, 7]: 1
Somnolence, non-dose limiting, maximum Grade 2 [1, 7]: 1
Thrombocytopenia, non-dose limiting, maximum Grade 1 [1, 7]: 6
Thrombocytopenia, non-dose limiting, maximum Grade 2 [1, 7]: 2
Vomiting, non-dose limiting, maximum Grade 2 [1, 7]: 2
Anemia, non-dose limiting, maximum Grade 1 [1, 8]: 2
Anemia, non-dose limiting, maximum Grade 2 [1, 8]: 1
Dizziness, non-dose limiting, maximum Grade 1 [1, 8]: 1
Fatigue, non-dose limiting, maximum Grade 2 [1, 8]: 1
Headache, non-dose limiting, maximum Grade 2 [1, 8]: 1
Leukopenia, non-dose limiting, maximum Grade 2 [1, 8]: 1
Leukopenia, non-dose limiting, maximum Grade 3 [1, 8]: 1
Lymphopenia, non-dose limiting, maximum Grade 1 [1, 8]: 2
Lymphopenia, non-dose limiting, maximum Grade 3 [1, 8]: 1
Neutropenia, non-dose limiting, maximum Grade 2 [1, 8]: 1
Neutropenia, non-dose limiting, maximum Grade 3 [1, 8]: 1
Neutropenia, non-dose limiting, maximum Grade 4 [1, 8]: 1
Thrombocytopenia, non-dose limiting, maximum Grade 1 [1, 8]: 2
Thrombocytopenia, non-dose limiting, maximum Grade 4 [1, 8]: 1
Total VPA ([2]; Patient 536584): 81.0 µg/mL
Total VPA ([2]; Patient 712904): 100.9 µg/mL
Total VPA ([2]; Patient 714036): 109.0 µg/mL
Total VPA ([2]; Patient 734297): 78.2 µg/mL
Free VPA ([2]; Patient 747001): 19.1 µg/mL
Total VPA ([2]; Patient 747001): 90.9 µg/mL
Total VPA ([2]; Patient 752294): 134.1 µg/mL
Free VPA ([2]; Patient 757318): 36.6 µg/mL
Total VPA ([2]; Patient 757318): 90.1 µg/mL
Free VPA ([2]; Patient 769495): 8.1 µg/mL
Total VPA ([2]; Patient 769495): 77.0 µg/mL
Free VPA ([2]; Patient 770059): 11 µg/mL
Total VPA ([2]; Patient 770059): 105.7 µg/mL
Free VPA ([2]; Patient 770113): 8 µg/mL
Total VPA ([2]; Patient 770113): 55.7 µg/mL
Mean steady state VPA dose ([2]; VPA concentration 75–100 mcg/ml, syrup and capsules (n = 2)): 12.5 ± 3.5 mg/kg
Mean steady state VPA dose ([2]; VPA concentration 75–100 mcg/ml, syrup only (n = 4)): 17.5 ± 2.9 mg/kg
Mean steady state VPA dose ([2]; VPA concentrations 100–150 mcg/ml, syrup and capsules (n = 8)): 41.3 ± 20.7 mg/kg
Mean steady state VPA dose ([2]; VPA concentrations 100–150 mcg/ml, syrup only (n = 10)): 36.0 ± 27.7 mg/kg
concentration at 9 weeks ([2]; human, plasma, oral): 123 µg/mL
concentration at 3 days ([2]; human, plasma, oral, 25 mg/kg/day): 172 µg/mL
Vd/F ([2]; human, plasma, po, 25 mg/kg/day): 0.12 L/kg
CL/F ([2]; human, plasma, po, 25 mg/kg/day, First dose, Total VPA (n = 4), oral): 0.2 mL/min/kg
CL/F [2, 9]: 0.87 mL/min/kg
CL/F [2, 10]: 0.133 mL/min/kg
half-life [2, 9]: 6.5 h
half-life [2, 10]: 11.4 h
Mean final dose of VPA ([2]; starting dose 25 mg/kg/day divided b.i.d., trough above 100 mcg/ml): exceeded 50 mg/kg/day
Number of dose escalations to achieve targeted concentrations (mean ± SD) ([2]; t.i.d. dosing): 1.3 ± 0.5
Mean final dose of VPA ([2]; t.i.d., starting dose 15 mg/kg/day): less than 20 mg/kg/day
Free VPA concentration as % of total concentration (mean +/− SD) ([2]; total VPA concentration exceeded 125 mcg/ml, 8 measurements): 44.9 +/− 15.8%
Free VPA concentration as % of total concentration (mean +/− SD) ([2]; total VPA concentrations below 100 mcg/ml, 32 measurements): 16.8 +/− 6.9%
Free VPA concentration as % of total concentration (mean +/− SD) ([2]; total VPA concentrations between 100–125 mcg/ml, 17 measurements): 21.3 +/− 11.5%
Fraction of free VPA ([2]; until total VPA concentrations exceeded 125 mcg/ml): less than 0.25
Patients with reduced post-treatment AcH3 and AcH4 levels in PBMCs ([3]; 10 patients studied): Five
Patients with increased AcH3 and AcH4 levels in PBMCs ([3]; 10 patients studied, at trough VPA exposure): Five and 5 out of 10
Post-VPA/Pre-VPA AcH3 ([3]; Patient 712904): 0.75
Post-VPA/Pre-VPA AcH3 ([3]; Patient 714036): 0.93
Post-VPA/Pre-VPA AcH3 ([3]; Patient 734297): 1.51
Post-VPA/Pre-VPA AcH3 ([3]; Patient 747001): 0.43
Post-VPA/Pre-VPA AcH3 ([3]; Patient 757318): 1.44
Post-VPA/Pre-VPA AcH3 ([3]; Patient 769495): 1.38
Post-VPA/Pre-VPA AcH3 ([3]; Patient 770113): 0.90
Patients with increased PBMC histone acetylation ([3]; of patients studied, steady state, H3 and H4): 50%
Post-VPA/Pre-VPA AcH4 ([4]; Patient 712904): 0.75
Post-VPA/Pre-VPA AcH4 ([4]; Patient 714036): 0.87
Post-VPA/Pre-VPA AcH4 ([4]; Patient 734297): 1.11
Post-VPA/Pre-VPA AcH4 ([4]; Patient 747001): 0.47
Post-VPA/Pre-VPA AcH4 ([4]; Patient 757318): 1.55
Post-VPA/Pre-VPA AcH4 ([4]; Patient 769495): 2.45
Post-VPA/Pre-VPA AcH4 ([4]; Patient 770113): 0.70
Toxicity of radiation and VPA [5]: without encountering neuro-toxicities or other dose-limiting toxicities
Threshold VPA concentration associated with anti-tumor activity (human cancers): exceeded 100 mcg/ml
Increases in AcH3 and AcH4 in PBMC [6]: observed in all patients

C/C=C1\NC(=O)[C@H]2CSSCC/C=C/[C@H](CC(=O)N[C@H](C(C)C)C(=O)N2)OC(=O)[C@H](C(C)C)NC1=O [depsipeptide]
Histone hyper-acetylation (histone acetylation): histone hyper-acetylation in all patients
